Reference: US8076338B2, “Kinase modulators and methods of use” (Exelixis, Inc., priority 2004, dated 2011)
Where two headings read alike, the source gives them in different places.

Tests used:
[1] = molecular target: p70S6K (Homo sapiens, UniProt P23443); assay: Luciferase-coupled chemiluminescence kinase assay (ATP consumption); type: biochemical
Experimental: (§1) One measure of inhibition is Ki. […] The Ki for a compound is determined from the IC50 based on three assumptions. First, only one compound molecule binds to the enzyme and there is no cooperativity. […] Third, the enzymatic rate of the enzyme-inhibitor complex is zero. The rate data (i.e. compound concentration) are fitted to the equation: […]
(§2) Luciferase-Coupled Chemiluminescence Assay Protocol
(§3) Kinase activity is measured as the percent of ATP consumed following the kinase reaction using luciferase-luciferin-coupled chemiluminescence. Reactions were conducted in 384-well white, medium binding microtiter plates (Greiner). Kinase reactions were initiated by combining test compounds, ATP and kinase in a 20 uL volume. The reaction mixture was incubated at ambient temperature for 3 hrs. For p70S6K and/or AktK, 2.5-5 nM of the enzyme was pre-incubated with compound in 20 mM Tris pH 7.5, 10 mM MgCl2, 0.03% TX-100, and 1 mM DTT for 30 minutes at room temperature. Following the kinase reaction, a 20 μL aliquot of luciferase-luciferin mix was added and the chemiluminescence signal measured using a Victor^2 plate reader (Perkin Elmer). The luciferase-luciferin mix contained 50 mM HEPES, pH 7.8, 67 mM oxalic acid (pH 7.8), 5 (or 50) mM DTT, 0.4% Triton X-100, 0.25 mg/mL coenzyme A, 63 μM AMP, 28 μg/1 mL luciferin and 40,000 units/mL luciferase. Total ATP consumption was limited to 25-60% and the IC50 values correlate well with those determined by radiometric assays.

[2] = molecular target: AktK (Homo sapiens, UniProt P31749); assay: as above; type: biochemical; conditions: read-out: AKT-1 IC50
Experimental: as §1, §2, §3

p70S6K, sequence (P23443 whole entry): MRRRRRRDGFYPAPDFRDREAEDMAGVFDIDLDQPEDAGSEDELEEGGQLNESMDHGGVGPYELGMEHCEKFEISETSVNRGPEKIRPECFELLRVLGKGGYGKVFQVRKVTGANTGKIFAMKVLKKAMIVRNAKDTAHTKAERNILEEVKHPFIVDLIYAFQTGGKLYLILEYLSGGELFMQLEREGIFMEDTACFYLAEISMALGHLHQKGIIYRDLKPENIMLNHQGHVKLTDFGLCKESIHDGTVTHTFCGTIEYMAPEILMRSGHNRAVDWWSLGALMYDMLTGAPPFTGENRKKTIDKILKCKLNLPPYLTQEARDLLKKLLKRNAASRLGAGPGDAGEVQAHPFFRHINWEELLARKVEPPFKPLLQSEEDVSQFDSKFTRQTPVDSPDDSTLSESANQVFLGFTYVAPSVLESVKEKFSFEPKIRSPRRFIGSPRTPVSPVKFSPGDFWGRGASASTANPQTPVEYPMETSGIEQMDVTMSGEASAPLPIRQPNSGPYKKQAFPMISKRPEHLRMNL
AktK, sequence (P31749 whole entry): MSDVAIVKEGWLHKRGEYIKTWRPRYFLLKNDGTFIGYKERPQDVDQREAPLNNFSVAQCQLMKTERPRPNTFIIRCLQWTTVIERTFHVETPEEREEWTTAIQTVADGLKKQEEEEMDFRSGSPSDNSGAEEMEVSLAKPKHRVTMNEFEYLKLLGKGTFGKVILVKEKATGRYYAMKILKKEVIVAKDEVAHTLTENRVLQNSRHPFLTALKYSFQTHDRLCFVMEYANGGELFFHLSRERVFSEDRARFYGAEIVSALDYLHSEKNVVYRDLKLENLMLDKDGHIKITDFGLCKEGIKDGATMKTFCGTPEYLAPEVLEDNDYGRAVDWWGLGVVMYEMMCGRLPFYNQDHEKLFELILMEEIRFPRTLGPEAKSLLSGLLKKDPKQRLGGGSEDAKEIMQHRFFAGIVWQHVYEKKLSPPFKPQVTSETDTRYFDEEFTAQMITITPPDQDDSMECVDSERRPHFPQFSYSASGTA

Row | SMILES | IC50 [1] [µM] | IC50 [2] [µM] | IC50 ([1]; Table 1, class symbols per key) [µM] | IC50 ([2]; Table 1, class symbols per key) [µM]
1 | COc1ccccc1-c1n[nH]c2ncnc(N3CCN(c4cc(Cl)ccc4C)CC3)c12 [Entry 363, 4-[4-(5-chloro-2-methylphenyl)piperazin-1-yl]-3-[2-(methyloxy)phenyl]-1H-pyrazolo[3,4-d]pyrimidine] | 0.1 to 1 | 1 to 10 | – | –
2 | Clc1ccc(N2CCN(c3ncnc4[nH]nc(Br)c34)CC2)cc1Cl [Entry 75, 3-bromo-4-[4-(3,4-dichlorophenyl)piperazin-1-yl]-1H-pyrazolo[3,4-d]pyrimidine] | – | – | 0.1 to 1 | ≥ 10
3 | CCc1n[nH]c2ncnc(N3CCN(c4ncnc5cc(OC)c(OC)cc45)CC3)c12 [Entry 169, 4-[4-(3-ethyl-1H-pyrazolo[3,4-d]pyrimidin-4-yl)piperazin-1-yl]-6,7-bis(methyloxy)quinazoline] | – | – | 1 to 10 | ≥ 10
4 | Cc1cccc(COc2cccc(N3CCN(c4ncnc5[nH]nc(Br)c45)CC3)c2)c1 [Entry 141, 3-bromo-4-[4-(3-{[(3-methylphenyl)methyl]oxy}phenyl)piperazin-1-yl]-1H-pyrazolo[3,4-d]pyrimidine] | – | – | 0.1 to 1 | ≥ 10
5 | Cc1c(NCCN(C)C)cc(OCC(C)(C)F)cc1N1CCN(c2ncnc3[nH]nc(Br)c23)CC1 [Entry 226, N′-{3-[4-(3-bromo-1H-pyrazolo[3,4-d]pyrimidin-4-yl)piperazin-1-yl]-5-[(2-fluoro-2-methylpropyl)oxy]-2-methylphenyl}-N,N-dimethyl-ethane-1,2-diamine] | – | – | < 0.1 | < 0.1
6 | COCCOCc1n[nH]c2ncnc(N3CCN(c4cc(Cl)ccc4C)CC3)c12 [Entry 328, 4-[4-(5-chloro-2-methylphenyl)piperazin-1-yl]-3-({[2-(methyloxy)ethyl]oxy}methyl)-1H-pyrazolo[3,4-d]pyrimidine] | < 0.1 | 1 to 10 | – | –
7 | Cc1c(OCC2CCN(C)CC2)cc(Cl)cc1N1CCN(c2ncnc3[nH]nc(C(F)(F)F)c23)CC1 [Entry 90, 4-[4-(5-chloro-2-methyl-3-{[(1-methylpiperidin-4-yl)methyl]oxy}phenyl)piperazin-1-yl]-3-(trifluoro-methyl)-1H-pyrazolo[3,4-d]pyrimidine] | – | – | < 0.1 | 0.1 to 1
8 | FC(F)(F)c1cccc(N2CCN(c3ncnc4[nH]cnc34)CC2)c1 [Entry 314, 6-{4-[3-(trifluoromethyl)phenyl]piperazin-1-yl}-9H-purine] | 0.1 to 1 | ≥ 10 | – | –
9 | CCN(CC)CCOc1cc(Cl)cc(N2CCN(c3ncnc4[nH]nc(C(F)(F)F)c34)CC2)c1C [Entry 34, 2-[(5-chloro-2-methyl-3-{4-[3-(trifluoromethyl)-1H-pyrazolo[3,4-d]pyrimidin-4-yl]piperazin-1-yl}phenyl)oxy]-N,N-diethylethanamine] | – | – | < 0.1 | 0.1 to 1
10 | Cc1ccc(Cl)cc1N1CCN(c2ncnc3[nH]nc(/C=C4/C[C@H]5CNC[C@H]5C4)c23)CC1 [Entry 396, 4-[4-(5-chloro-2-methylphenyl)piperazin-1-yl]-3-[(E)-(3aR,6aS)-hexahydrocyclopenta[c]pyrrol-5(1H)-ylidenemethyl]-1H-pyrazolo[3,4-d]pyrimidine] | 1 to 10 | 1 to 10 | – | –
11 | Cc1c(NCCN2CCCC2)cc(-c2nc(-c3ccccc3)no2)cc1N1CCN(c2ncnc3[nH]nc(Br)c23)CC1 [Entry 241, 3-[4-(3-bromo-1H-pyrazolo[3,4-d]pyrimidin-4-yl)piperazin-1-yl]-2-methyl-5-(3-phenyl-1,2,4-oxadiazol-5-yl)-N-(2-pyrrolidin-1-ylethyl)aniline] | – | – | < 0.1 | 1 to 10
12 | Fc1ccc(N2CCN(c3ncnc4[nH]ccc34)CC2)cc1 [Entry 312, 4-[4-(4-fluorophenyl)piperazin-1-yl]-7H-pyrrolo[2,3-d]pyrimidine] | 0.1 to 1 | ≥ 10 | – | –
13 | CCOC(=O)c1cnc(C(F)(F)F)nc1N1CCN(c2ncnc3[nH]nc(CC)c23)CC1 [Entry 112, ethyl 4-[4-(3-ethyl-1H-pyrazolo[3,4-d]pyrimidin-4-yl)piperazin-1-yl]-2-(trifluoromethyl)pyrimidine-5-carboxylate] | – | – | 1 to 10 | ≥ 10
14 | CCc1n[nH]c2ncnc(N3CCN(c4nc(C)cnc4C)CC3)c12 [Entry 101, 4-[4-(3,6-dimethylpyrazin-2-yl)piperazin-1-yl]-3-ethyl-1H-pyrazolo[3,4-d]pyrimidine] | – | – | 0.1 to 1 | ≥ 10
15 | CCc1n[nH]c2ncnc(N3CCN(c4cccc(Cl)c4)CC3C(=O)OC)c12 (stereo not drawn) [Entry 349, methyl 4-(3-chlorophenyl)-1-(3-ethyl-1H-pyrazolo[3,4-d]pyrimidin-4-yl)piperazine-2-carboxylate] | 1 to 10 | ≥ 10 | – | –
16 | CN(C)CCOc1nccnc1N1CCN(c2ncnc3[nH]nc(Br)c23)CC1 [Entry 119, 2-({3-[4-(3-bromo-1H-pyrazolo[3,4-d]pyrimidin-4-yl)piperazin-1-yl]pyrazin-2-yl}oxy)-N,N-dimethylethanamine] | – | – | 0.1 to 1 | 1 to 10
17 | c1ccc(N2CCN(c3ncnc4[nH]ncc34)CC2)cc1 [Entry 297, 4-(4-phenylpiperazin-1-yl)-1H-pyrazolo[3,4-d]pyrimidine] | 0.1 to 1 | ≥ 10 | – | –
18 | CCc1n[nH]c2ncnc(N3CCN(c4cc(Cl)cc(CCCN(CC)CC)c4C)CC3)c12 [Entry 402, 3-{5-chloro-3-[4-(3-ethyl-1H-pyrazolo[3,4-d]pyrimidin-4-yl)piperazin-1-yl]-2-methylphenyl}-N,N-diethylpropan-1-amine] | < 0.1 | 0.1 to 1 | – | –
19 | FC(F)(F)c1cccnc1N1CCN(c2ncnc3[nH]nc(Br)c23)CC1 [Entry 135, 3-bromo-4-{4-[3-(trifluoromethyl)pyridin-2-yl]piperazin-1-yl}-1H-pyrazolo[3,4-d]pyrimidine] | – | – | 0.1 to 1 | ≥ 10
20 | Cc1ccc(Cl)cc1N1CCN(c2ncnc3[nH]nc(C4=CCNCC4)c23)CC1 [Entry 401, 4-[4-(5-chloro-2-methylphenyl)piperazin-1-yl]-3-(1,2,3,6-tetrahydropyridin-4-yl)-1H-pyrazolo[3,4-d]pyrimidine] | < 0.1 | 1 to 10 | – | –
21 | CCOc1ccc(N2CCN(c3ncnc4[nH]nc(Br)c34)CC2)cc1 [Entry 104, 3-bromo-4-{4-[4-(ethyloxy)phenyl]piperazin-1-yl}-1H-pyrazolo[3,4-d]pyrimidine] | – | – | 0.1 to 1 | ≥ 10
22 | CCc1n[nH]c2ncnc(N3CCN(c4cc(C(F)(F)F)ccn4)CC3)c12 [Entry 116, 3-ethyl-4-{4-[4-(trifluoromethyl)pyridin-2-yl]piperazin-1-yl}-1H-pyrazolo[3,4-d]pyrimidine] | – | – | 0.1 to 1 | ≥ 10
23 | Cc1c(NCCN2CCCC2)cc(CC[Si](C)(C)C)cc1N1CCN(c2ncnc3[nH]nc(Br)c23)CC1 [Entry 246, 3-[4-(3-bromo-1H-pyrazolo[3,4-d]pyrimidin-4-yl)piperazin-1-yl]-2-methyl-N-(2-pyrrolidin-1-ylethyl)-5-[2-(trimethylsilyl)ethyl]aniline] | – | – | < 0.1 | < 0.1
24 | CC(=O)c1ccc(N2CCN(c3ncnc4[nH]nc(Br)c34)CC2)cc1 [Entry 94, 1-{4-[4-(3-bromo-1H-pyrazolo[3,4-d]pyrimidin-4-yl)piperazin-1-yl]phenyl}ethanone] | – | – | 0.1 to 1 | 1 to 10
